Data: PMC11286754 (Nature Communications, 2024)

Tests used:
[1] = biological target: T1, SMTA (transaminase from Shimia marina) (Shimia marina, UniProt A0A0P1EM06); assay type: binding
[2] = biological target: T1, SMTA (transaminase from Shimia marina); assay type: binding; remark: listed apart in the source

T1 sequence (A0A0P1EM06 1-462 limits assumed): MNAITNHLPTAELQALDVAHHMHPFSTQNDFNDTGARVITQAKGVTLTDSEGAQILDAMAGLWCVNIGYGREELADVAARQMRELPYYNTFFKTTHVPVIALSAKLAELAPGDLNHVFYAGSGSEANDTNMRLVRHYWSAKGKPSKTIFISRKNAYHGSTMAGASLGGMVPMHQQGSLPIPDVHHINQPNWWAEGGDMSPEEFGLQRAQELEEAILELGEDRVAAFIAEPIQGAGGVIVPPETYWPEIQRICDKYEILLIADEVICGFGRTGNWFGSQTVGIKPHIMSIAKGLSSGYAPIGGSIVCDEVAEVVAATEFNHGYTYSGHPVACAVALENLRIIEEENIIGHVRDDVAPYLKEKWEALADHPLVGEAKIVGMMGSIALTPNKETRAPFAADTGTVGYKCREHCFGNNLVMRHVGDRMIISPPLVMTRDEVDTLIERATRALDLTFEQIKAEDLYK

Row | SMILES | X-ray crystal structure, 2.14 A [1] | cofactor release assay [2]
1 | Cc1ncc(COP(=O)(O)O)c(C=O)c1O [PLP, pyridoxal-5′-phosphate] | The apparent electron density indicated a Schiff base between PLP and the catalytic lysine K291 | 
2 | Cc1ncc(COP(=O)(O)O)c(CN)c1O [PMP] |  | binding affinity of both PLP and PMP compared to that of wild-type SMTA
